Results taken from patent US10695425B2, “Methods for treating and/or limiting development of diabetes in subjects with amyotrophic lateral sclerosis” (Biocrine AB, priority 2015, dated 2020).

System: αTC1-6 cells
Assay: K+ depolarization-induced [Ca2+]i response in αTC1-6 cells (fura-2)
Format: cell-based, mouse
Details: αTC1-6 cells pre-exposed to specific Ca2+ channel blocker
Protocol: A glucose concentration of 11 mM was used for islet stimulation. After loading, islets and cells on the glass coverslips were transferred to an open perifusion chamber maintained at 37° C. and [Ca^2+]i measured as the 340/380 nm ratio. The light source was equipped with a xenon arc lamp and an integrated shutter (Lambda DG-4, Sutter instrument company), and coupled to the microscope (Olympus ix 71) via a liquid light guide. The 16-bit grayscale images with a binning of 1×1 were captured every 1 s (exposure time ranged from 100 to 300 ms) with a cooled EM-CCD camera (ImagEM X2, Hamamatsu). The camera and shutter were controlled by METAFLUOR® (Molecular Devices) software, which was also used for analysis. Cells with bright [Ca^2+]i signal defined the regions of interest (ROIs). ROI signals were calculated by subtracting background noise signal.

## w-agatoxin TK
  blocker-sensitive share of K+ depolarization-induced [Ca2+]i increase: considerable number
